Laboratory results from US20140147848A1 (UNIVERSITY OF TSUKUBA, priority 2012, published 2014).
Read-outs that look alike come from different tables or passages of the source.

Legend:
Caco-2 cells [1] = test system: Caco-2 cells
Procedure: Specifically, Caco-2 cells were treated with concentrations of 0, 1 ppm, 5 ppm, 50 ppm, 60 ppm, and 70 ppm and analyzed by an MTT assay at 24 h, 48 h, and 72 h post-treatment.
The human colon adenocarcinoma cell line Caco-2 was kindly provided by Dr. Makoto Shimizu of the University of Tokyo, Japan. Caco-2 cells were cultured in Dulbecco's modified Eagle's medium (DMEM; Sigma) supplemented with 10% fetal calf serum (FCS), 1% nonessential amino acids (NEAA) and 1% Penicillin/Streptomycin (5 mg/ml each), and incubated in a 95% air and 5% CO2 atmosphere at 37° C. The cells were sub-cultured at a split ratio of 1:3 every 2 days.
Cell viability was assessed using a conventional MTT reduction assay. […] At the respective time points, 10 μl of MTT stock solution (5 mg/ml) was added to the culture medium and incubated for 6 h at 37° C. The formazan was extracted with 100 μl 10% SDS (W/V), and the absorbance was measured with a microliter plate reader at 570 nm wavelength.

Caco-2 cells [2] = test system: Caco-2 cells; remark: listed apart in the source
Procedure: Cells were then harvested by centrifugation, where the supernatant was discarded and the pellet was resuspended in 1 ml of PBS. Genomic DNA was then purified using commercial DNA purification kit from QIAGEN. 1 μg of DNA sample was added to 2 μl of loading buffer (Wako) and then loaded onto a 2% agarose gel. The electrophoresis was carried out at a constant voltage of 100 V for 20 min and the DNA was finally observed under ultraviolet illumination after staining with ethidium bromide.

Thioredoxin (THIO) = conditions: LAS 60 ppm
Excerpt: (§1) Note that in all figures asterisks represent the significance of the difference compared to the control, e.g., * for p value<0.05 and ** for p value<0.01.

Caco-2 cells [3] = conditions: LAS 60 ppm
Procedure: as §1
The determination of intracellular ROS was performed using the OxiSelect™ Intracellular ROS Assay Kit, from CELL BIOLABS, INC., according to the manufacturer's protocol. Briefly, Caco-2 cells were cultured in a 96-well plate for 24 h, and then pre-incubated for 60 min with DCFH-DA. […] After a different incubation times of, for example, 1 h, 3 h, 6 h, and 12 h, the fluorescence was read using a plate reader at 480 nm/530 nm excitation/emission wavelengths. The ROS content was determined by comparison with the predetermined DCF standard curve.

Caco-2 monolayer = test system: Caco-2 monolayer
Procedure: TEER measurements were obtained by growing the cells at a density of 2·10^5 cells/cm^2 in 6.5-mm diameter collagen coated Transwell (0.4 μm PTFE membrane) on 24-well plates. The medium was changed every 2 days, and the cells were cultured for 12 days to establish monolayer integrity. TEER measurements were performed according to the method of Hashimoto et al. (1997). After a 12-day culture period, the cell monolayer was rinsed with PBS.

Caco-2 cells [4] = test system: Caco-2 cells; remark: listed apart in the source
Procedure: Caspase assay was performed using Immunochemistry Technologies, LLC's Apoptosis detection kit, according to the manufacturer's protocol. […] After treatment, approximately 290-300 μl of each cell suspension was transferred to sterile tubes (e.g., cell density should be around 1×10^7 cells/ml). 10 μl of 30×FLICA solution was added directly to the 290-300 μl cell suspensions, and then incubate cells for 1 hour at 37° C. under 5% CO2, protecting the tubes from light. 2 ml of 1× wash buffer was added to each tube. The tubes were then mix and centrifuge cells at <400×g for 5 minutes at room temperature (RT). The supernatant was carefully remove and discard. The cell pellet was resuspended in 1 ml 1× wash buffer, and the cells were centrifuged again at <400×g for 5 minutes at RT. The supernatant was carefully removed and discarded. The cells were resuspended in 400 μl PBS, about 100 μl of the cell suspensions was placed into each of 2 wells of a black microplate. Finally the fluorescence intensity of sulforhodamine (excitation 550 nm, emission 595 nm) was measured and used a fluorescence plate reader.

Caco-2 cells [5] = conditions: 5 ppm and 60 ppm LAS, 24 hours, vs control
Procedure: Total protein was extracted from all three populations 24 hours after treatment, as described in detail below. […] The labeled spots (i.e., the differentially expressed proteins) were chosen based on the results of software analysis designed to assess the respective fold changes of protein levels in the each of the respective spots.
Caco-2 cells were seeded at 2×10^5 cells/ml density in Petri dishes. […] The cells were rinsed three times with ice-cold PBS, scraped gently, and collected in PBS. […] After desalting the protein was extracted using Amicon Ultra centrifugal filters (Ultracel-10K membrane) from Millipore, and the final protein amount was determined using the 2-D Quant kit (GE Healthcare).
The first dimension electrophoresis was carried out on an Ettan IPGphor II (GE Healthcare) apparatus. […] The destained gels were then scanned at 300 dpi resolution, and the images were analyzed with Image Master™ 2D software (ver. 4.9: GE Healthcare). For statistical quantification, three experiments were performed for each experiment. […] Spots were expressed as percentages (% vol) of relative volumes by integrating the value of each pixel in the spot area as described previously in our study (see, e.g., Han et al. 2010). […]

Caco-2 cells [6] = test system: Caco-2 cells; remark: listed apart in the source
[7] = test system: Heat shock cognate 71 kDa protein (HSP7C); conditions: LAS 60 ppm, 12 hours after exposure
Procedure: (§2) Caco-2 cells treatment and RNA extraction: Caco-2 cells were seeded at 2×10^5 cells/ml density in Petri dishes. […] Total RNA was then purified using the ISOGEN kit (Nippon GeneCo Ltd., Japan) following the manufacturer's instructions.
(§3) cDNA synthesis: Total RNA was quantified using the Thermo scientific Nanodrop 2000 (USA), and reverse transcription reactions were performed using the Superscript III reverse transcriptase kit (Invitrogen, Carlsbad, Calif.) using 1 μg of total RNA. Briefly, RNA was denatured by incubation at 65° C. for 5 min, with 1 μL oligo (dT) primers, and chilled at 4° C. SuperScript III reverse transcriptase was then added and the reaction mix was incubated at 42° C. for 60 min, and then for 10 min at 70° C.
Real-time PCR: The expression of TPM3, THIO, CALR and HSP7C, respectively, in treated Caco-2 cells was determined by real-time PCR using glyceraldehyde 3-phosphate dehydrogenase (GAPDH) as an internal positive control. […] TaqMan real-time PCR amplification reactions were performed in a 20 μl reaction mixtures containing: 10 μl of TaqMan Universal PCR Master Mix UNG (2×), 9 μl of template cDNA (100 ng μl^−1) and 1 μl of the corresponding primer/probe mix, using an AB 7500 fast real-time system (Applied Biosystems). […]

[8] = test system: Tropomyosin alpha-3 chain (TPM3); assay: Real-time PCR, TPM3 expression in Caco-2 cells; conditions: LAS 60 ppm
Procedure: as §2, §3
Real-time PCR: The expression of TPM3, THIO, CALR and HSP7C, respectively, in treated Caco-2 cells was determined by real-time PCR using glyceraldehyde 3-phosphate dehydrogenase (GAPDH) as an internal positive control. […] TaqMan real-time PCR amplification reactions were performed in a 20 μl reaction mixtures containing: 10 μl of TaqMan Universal PCR Master Mix UNG (2×), 9 μl of template cDNA (100 ng μl^−1) and 1 μl of the corresponding primer/probe mix, using an AB 7500 fast real-time system (Applied Biosystems). For the amplification, the following cycling conditions were applied: 2 min at 50° C., 10 min at 95° C., and 40 cycles of 15 s at 95° C./1 min at 60° C.

Calreticulin (CALR) = assay: Real-time PCR, CALR expression in Caco-2 cells; conditions: LAS 60 ppm
Procedure: as §2, §3
Real-time PCR: The expression of TPM3, THIO, CALR and HSP7C, respectively, in treated Caco-2 cells was determined by real-time PCR using glyceraldehyde 3-phosphate dehydrogenase (GAPDH) as an internal positive control. Oligos for TPM3 (Hs01900726_g1), THIO (Hs01555212_g1), CALR (Hs00189032_m1), HSP7C (Hs03045200_g1) and GAPDH (Hs02758991_g1) were inventoried gene expression assays (see Table 5). TaqMan real-time PCR amplification reactions were performed in a 20 μl reaction mixtures containing: 10 μl of TaqMan Universal PCR Master Mix UNG (2×), 9 μl of template cDNA (100 ng μl^−1) and 1 μl of the corresponding primer/probe mix, using an AB 7500 fast real-time system (Applied Biosystems). For the amplification, the following cycling conditions were applied: 2 min at 50° C., 10 min at 95° C., and 40 cycles of 15 s at 95° C./1 min at 60° C.

sodium dodecylbenzenesulfonate [LAS]
cytotoxic effect on Caco-2 cells (MTT) (Caco-2 cells [1]; 0-70 ppm LAS, 24 h, 48 h, 72 h post-treatment): strong cytotoxic effect
cytotoxic effect on Caco-2 cells (MTT) (Caco-2 cells [1]; LAS 5 ppm): no obvious cytotoxic effect
DNA fragmentation (Caco-2 cells [2]): no DNA fragmentation was observed
THIO overexpression relative to the control (Thioredoxin (THIO); 3 hours): 1.4 fold
THIO overexpression relative to the control (Thioredoxin (THIO); 6 hours): 1.4 fold
THIO overexpression relative to the control (Thioredoxin (THIO); 12 hours): about 1.3 fold
THIO overexpression relative to the control (Thioredoxin (THIO); 24 hours): about 1.1 fold
ROS production (Caco-2 cells [3]; 12 hours post-treatment): returned to baseline levels (or lower)
ROS production (Caco-2 cells [3]; within the first 6 hours after treatment): significant ROS production
relative electrical resistance (TEER) (Caco-2 monolayer; 5, 10, 30, and 60 ppm LAS over time): decreased with increasing concentration of LAS
time to decrease in barrier function efficiency (Caco-2 monolayer; higher concentrations of LAS): ≤ 30 min
cell death pathway (caspase assay) (Caco-2 cells [4]): non-apoptotic pathway
change in protein expression, spots 1, 2, 4, 5, 7, 8, 9, 10, and 12 (Caco-2 cells [5]): up-regulation
change in protein expression, spots 3, 6, 11, and 13 (Caco-2 cells [5]): down-regulation
intracellular calcium concentration (Caco-2 cells [6]; 3 and 6 hours post-treatment): decrease of the intracellular calcium concentration
intracellular calcium concentration (Caco-2 cells [6]; 12 hours, continuing until 24 hours post-treatment): excessive increase of the intracellular calcium concentration
HSP7C expression relative to control [7]: significantly overexpressed
TPM3 overexpression relative to the control ([8]; 3 hours): 1.2 fold
TPM3 overexpression relative to the control ([8]; 6 hours post-exposure): slightly below that of the control
TPM3 overexpression relative to the control ([8]; after 6 hours (time not given)): ~1.05 fold
CALR expression relative to control (Calreticulin (CALR); 3 hours post-treatment): about 1.6 fold
CALR expression relative to control (Calreticulin (CALR); 12 hours post-treatment): decreased to baseline levels
CALR expression relative to control (Calreticulin (CALR); 24 hours after exposure): once again overexpressed
